From ChEMBL document CHEMBL3085729, “Total synthesis of schizocommunin and revision of its structure” (J Nat Prod, 2013)
pIC50: −log10 of the molar value.

Columns and labels:
A549 = assay: Antiproliferative activity against human A549 cells after 48 hrs; type: functional, cell-based; settings: A549, 48 h
HeLa = assay: Antiproliferative activity against human HeLa cells after 48 hrs; type: functional, cell-based

Compound	pIC50 (A549)	pIC50 (HeLa)
O=C1Nc2ccccc2/C1=C\c1n[nH]c2ccccc2c1=O	< 4.00	< 4.00
O=C1Nc2ccccc2/C1=C/c1nc2ccccc2c(=O)[nH]1	< 4.00	4.82
CC(=O)N1C(=O)/C(=C/c2nnc3ccccc3c2Cl)c2ccccc21	< 4.00	4.54

Continued, values first:

pIC50 (A549)	pIC50 (HeLa)	Compound
4.03	5.11	O=C1Nc2ccccc2/C1=C\c1nnc2ccccc2c1Cl
< 4.00	4.71	COc1c(/C=C2/C(=O)Nc3ccccc32)nnc2ccccc12
